The values that follow come from US8809344B2, “Compounds, compositions, and methods for control of hepatitis C viral infections” (priority 2008, dated 2014).

pEC50: −log10 of the molar value.

What all share (format): cell-based
Data set [1] in a line: Neutral red dye uptake cytotoxicity assay. Conditions: human, Experiment 3. As for the experimental part:
(§1) Inhibition of HCV replication by compound AP0080978 (enantiomer 2 from Example 1) was also assayed by exposing cells harboring either HCV genotype 1a, HCV genotype 1b, HCV genotype 2a replicons. […] Final DMSO percentage was 1% in a total volume of 1 ml. After a 72 hour treatment period, total RNA was extracted, quantified via RiboGreen™ assay (Invitrogen-Molecular Probes, Eugene, Oreg., USA), and equivalent amounts of RNA were subjected to quantitative RT-PCR to quantify HCV RNA levels. Activity against genotype 1b was re-confirmed using Clone II cells (U.S. Pat. No. 7,049,428) that contain a stable subgenomic replicon (Con1 strain) with a Arg 1164 Gly adaptive mutation that is distinct from the Ser 1179 Ile adaptive mutation present in Clone VI cells. In this assay, cells were seeded into 96-well plates and treated in quadruplicate with varying concentration of compounds for 72 hours. For each replicate culture, HCV RNA levels were measured by blot hybridization and normalized to β-actin RNA levels. Cytotoxicity was measured using an established neutral red dye uptake assay (Korba and Gerin (1992) Antiviral Res 19:55; Okuse et al (2005) Antiviral Res 65: 23). […] Activity and toxicity against genotype 2a was evaluated in Huh7 cells harboring a stable hRluc-containing subgenomic genotype 2a replicon containing sequence from both J6 and JFH1 strains. […]

Data set [2] relates to parental genotype 1b (Con1 strain) subgenomic reporter replicon. Nature of the data set: Parental genotype 1b reporter replicon IVT RNA in Huh7.5 cells. As to conditions: Hepatitis C virus. From the text:
(§2) To identify nucleotide changes that confer resistance to 80978, replicon RNA was reverse transcribed and amplified from total RNA extracted from 80978-resistant and control Clone A cells. […] One silent mutation at amino acid 1771 was also observed. Each mutation was introduced independently into a stable genotype 1b (Con1 strain) subgenomic reporter replicon plasmid via site-directed mutagenesis. […] The sequence of the wild type NS4B encoding sequence is provided as SEQ ID NO:1, the sequence of the mutated NS4B nucleotide sequence encoding the F1809V mutation is provided as SEQ ID NO:3, and the sequence of the mutated NS4B nucleotide sequence encoding the F1809L mutation is provided as SEQ ID NO:5. The sequence of the wild type NS4B protein is provided as SEQ ID NO:2, the sequence of the mutated NS4B protein with the F1809V mutation is provided as SEQ ID NO:4, and the sequence of the mutated NS4B nucleotide sequence encoding the F1809L mutation is provided as SEQ ID NO:6. […] A differential response was observed between cells electroporated with different replicon RNAs.
(In general: A replicon is a self-replicating genome or part of one, used to study replication in cells.)

Data set [3] is described as follows: Cell viability (CC50) in the Clone VI RT-PCR experiment. As to conditions: human, Experiment 1, genotype 1b. As for the experimental part:
as §1, with “Activity against genotype 1b was re-confirmed using Clone II cells (U.S. Pat. No. 7,049,428) that contain a stable subgenomic replicon (Con1 strain) with a Arg 1164 Gly adaptive mutation that is distinct from the Ser 1179 Ile adaptive mutation present in Clone VI cells. In this assay, cells were seeded into 96-well plates and treated in quadruplicate with varying concentration of compounds for 72 hours.” left out
Additional compounds of formula (I) shown in FIG. 1 were also shown to inhibit HCV RNA replication. The effects of various compounds of formula (I) on HCV RNA replicon levels were determined by measuring HCV replicon RNA levels in cells treated with various concentrations of the compounds. […] Total RNA was extracted 72 hours later, and HCV and GAPDH RNA levels were quantified via quantitative RT-PCR. […]

In data set [4] the test system is subgenomic genotype 2a replicon (J6 and JFH1 strains). Briefly: Genotype 2a hRluc replicon assay in Huh7 cells, Renilla luciferase readout. As to conditions: Hepatitis C virus, Huh-7, 48 h. As for the experimental part:
as §1

In data set [5] the test system is stable genotype 1b subgenomic replicon (Con1 strain). Briefly: Clone II cells, HCV RNA by blot hybridization normalized to β-actin RNA. Conditions: Hepatitis C virus, 72 h. As for the experimental part: as §1
Data set [6] relates to genotype 1b (Con1 strain) replicon with NS4B F1809L mutation. Nature of the data set: F1809L mutant reporter replicon IVT RNA in Huh7.5 cells. As to conditions: Hepatitis C virus.
From the text: as §2

The subject of data set [7] is genotype 1b (Con1 strain) replicon with NS4B S1949Y mutation. Nature of the data set: S1949Y mutant reporter replicon IVT RNA in Huh7.5 cells. Conditions: Hepatitis C virus.
From the text: as §2

Data set [8] relates to genotype 1a replicon H/FL-Neo(L+I) (H77 strain). Nature of the data set: Genotype 1a replicon in Huh7.5 cells, HCV RNA by blot hybridization. Conditions: Hepatitis C virus, Huh7.5, 72 h.
Data set [9] has as its system genotype 2a replicon with the L1809F mutation. Nature of the data set: Genotype 2a replicon with L1809F mutation. As to conditions: Hepatitis C virus. The method, then: Since leucine at amino acid 1809 in the genotype 1b replicon was mutated from a phenylalanine residue to a leucine or a valine residue to confer resistance to 80978, and the residue at the corresponding position in the parental genotype 2a replicon is leucine, mutagenesis was carried out to determine whether a phenylalanine at this position in the genotype 2a replicon was sufficient to confer sensitivity to 80978.

One may read the CC50 as the concentration that lowers cell viability or growth by half. High values mean better tolerance by the cells, low ones harm at low concentration. What is called pEC50 is −log10 of the EC50, conventionally taken in molar units.

With `O=C(NCc1cccs1)c1nn2c(c1Cl)N[C@H](c1ccco1)C[C@@H]2C(F)(F)F` (single isomer, unassigned) [Compound 80978], the CC50 at 72 h in data set [1] is more than 20 µM; in data set [3], more than 100 µM. In addition, the pEC50 is 6.54 in data set [2]; less than 4.60 in [4]; 5.14 in data set [5]; less than 4.65 in data set [6]; 6.39 in [7]; 5.11 in data set [8]. The same compound showed a pEC50 in data set [9] of less than 4.60.
